In patent US10077243B2, “Compounds for treating disorders mediated by metabotropic glutamate receptor 5, and methods of use thereof” (Sunovion Pharmaceuticals Inc., priority 2009, dated 2018):
Like-named read-outs stand apart in the source and are kept apart here.

Target: T1, human mGluR5 (Homo sapiens, UniProt P41594)
T1 construct: expressed in transfected cells; host or cells: HEK293 cells stably expressing rat GLAST (EAAT1), stably transfected with pcDNAzeo3.1 carrying synthetic human mGluR5 DNA; zeocin-selected single clones
Test: In vitro cell-based FLIPR calcium assay for positive modulation of the activation of mGluR5 by glutamate (PAM EC50)
Conditions: FLIPR calcium signal, glutamate added at its EC20
Outline: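 HEK293/GLAST cells stably expressing mGluR5 were loaded with calcium-sensitive dye (25 °C, 45–60 min) in HBSS/20 mM HEPES. Test compounds were assayed in buffer containing glutamate at that day's EC20, with FLIPR fluorescence recorded. Controls contained 0.3% DMSO without compound.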

[1] = HEK293/GLAST cells expressing recombinant human mGluR5, read-out: mGluR5 PAM EC50

T1 sequence (P41594 21-1212): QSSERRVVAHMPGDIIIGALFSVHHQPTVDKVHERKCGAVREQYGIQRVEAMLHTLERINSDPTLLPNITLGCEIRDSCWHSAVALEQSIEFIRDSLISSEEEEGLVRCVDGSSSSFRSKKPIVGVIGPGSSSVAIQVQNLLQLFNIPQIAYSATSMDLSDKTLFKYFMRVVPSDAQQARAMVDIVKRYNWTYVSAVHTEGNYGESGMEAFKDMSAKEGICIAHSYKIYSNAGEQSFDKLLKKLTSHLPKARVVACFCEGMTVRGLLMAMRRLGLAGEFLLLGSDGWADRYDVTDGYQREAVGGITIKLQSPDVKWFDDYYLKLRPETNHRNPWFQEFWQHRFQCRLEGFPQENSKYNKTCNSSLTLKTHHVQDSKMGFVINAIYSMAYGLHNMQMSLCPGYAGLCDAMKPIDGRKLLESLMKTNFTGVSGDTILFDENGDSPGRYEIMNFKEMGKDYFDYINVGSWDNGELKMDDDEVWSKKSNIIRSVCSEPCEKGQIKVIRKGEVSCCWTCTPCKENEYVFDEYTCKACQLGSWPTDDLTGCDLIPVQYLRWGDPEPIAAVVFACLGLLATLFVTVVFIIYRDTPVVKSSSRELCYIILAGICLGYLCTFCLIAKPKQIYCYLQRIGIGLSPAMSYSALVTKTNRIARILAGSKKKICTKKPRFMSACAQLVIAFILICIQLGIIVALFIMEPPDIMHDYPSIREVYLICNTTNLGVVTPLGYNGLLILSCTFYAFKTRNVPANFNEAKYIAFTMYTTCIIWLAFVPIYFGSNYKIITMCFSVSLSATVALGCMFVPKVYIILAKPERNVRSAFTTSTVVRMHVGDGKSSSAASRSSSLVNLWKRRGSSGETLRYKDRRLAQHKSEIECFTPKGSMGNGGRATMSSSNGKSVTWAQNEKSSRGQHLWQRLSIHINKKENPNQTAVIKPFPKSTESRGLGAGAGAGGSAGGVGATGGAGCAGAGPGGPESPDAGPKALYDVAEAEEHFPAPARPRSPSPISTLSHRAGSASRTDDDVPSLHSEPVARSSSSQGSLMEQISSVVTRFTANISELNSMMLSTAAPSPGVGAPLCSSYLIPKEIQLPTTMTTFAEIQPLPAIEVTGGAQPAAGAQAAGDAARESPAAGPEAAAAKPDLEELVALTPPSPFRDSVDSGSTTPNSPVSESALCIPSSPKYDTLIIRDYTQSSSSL

| Structure (SMILES) | EC50 [1] [nM] | EC50 (mGluR5 PAM EC50, HEK293/GLAST cells expressing recombinant human mGluR5) [nM] |
| --- | --- | --- |
| COC1CCc2nc3cc(C#Cc4ccccn4)ccc3c(=O)n2C1 (stereo not drawn) [Example 4.26, 8-methoxy-3-(pyridin-2-ylethynyl)-8,9-dihydro-6H-pyrido[2,1-b]quinazolin-11(7H)-one] | 30 to 100 | – |
| CN1CCCCC12Cc1nc3cc(C#Cc4cccc(F)c4)ccc3c(=O)n1C2 (stereo not drawn) [Example 3.16, 6′-((3-fluorophenyl)ethynyl)-1-methyl-1′H-spiro[piperidine-2,2′-pyrrolo[2,1-b]quinazolin]-9′(3′ H)-one] | 100 to 300 | – |
| O=c1c2ccc(C#Cc3cccc(F)c3)cc2nc2n1CCCC2 [Example 4.4] | < 10 | – |
| CN(C)CC1CCc2nc3cc(C#Cc4cccc(F)c4)ccc3c(=O)n2C1 (stereo not drawn) [Example 4.36, 8-((dimethylamino)methyl)-3-((3-fluorophenyl)ethynyl)-8,9-dihydro-6H-pyrido[2,1-b]quinazolin-11(7H)-one] | 300 to 1000 | – |
| O=c1c2ccc(C#Cc3cccc(F)c3)cc2nc2n1C(CO)CC2 (stereo not drawn) [Example 3.5, 6-((3-fluorophenyl)ethynyl)-1-(hydroxymethyl)-2,3-dihydropyrrolo[2,1-b]quinazolin-9(1H)-one] | 30 to 100 | – |
| O=c1c2ccc(C#Cc3ccccc3)cc2nc2n1CCCCC2 [Example 6.4, 3-(phenylethynyl)-7,8,9,10-tetrahydroazepino[2,1-b]quinazolin-12(6H)-one] | < 10 | – |
| CN(C)CC1CCc2nc3cc(C#Cc4cccc(F)c4)ccc3c(=O)n21 (stereo not drawn) [Example 3.4, 1-((dimethylamino)methyl)-6-((3-fluorophenyl)ethynyl)-2,3-dihydropyrrolo[2,1-b]quinazolin-9(1H)-one] | 100 to 300 | – |
| O=c1c2ccc(C#Cc3cccc(F)c3)cc2nc2n1CCCC2Cc1ccccc1 (stereo not drawn) [Example 4.9, 6-benzyl-3-((3-fluorophenyl)ethynyl)-8,9-dihydro-6H-pyrido[2,1-b]quinazolin-11(7H)-one] | 100 to 300 | – |
| CC(C)(O)c1cnc2cc(C#Cc3cccc(F)c3)ccn2c1=O [Example 13.18, 8-((3-fluorophenyl)ethynyl)-3-(2-hydroxypropan-2-yl)-4H-pyrido[1,2-a]pyrimidin-4-one] | 100 to 300 | – |
| CCC(C)c1nc2cc(C#Cc3cccc(F)c3)ccc2c(=O)n1C (stereo not drawn) [Example 2.14, 2-(sec-butyl)-7-((3-fluorophenyl)ethynyl)-3-methylquinazolin-4(3H)-one] | 300 to 1000 | – |
| Cn1c(C2CCOC2)nc2cc(C#Cc3cccc(F)c3)ccc2c1=O (stereo not drawn) [Example 2.2, 7-((3-fluorophenyl)ethynyl)-3-methyl-2-(tetrahydrofuran-3-yl)quinazolin-4(3H)-one] | 300 to 1000 | – |
| COC1CCc2nc3cc(C#Cc4cccc(F)c4)ccc3c(=O)n2CC1 (stereo not drawn) [Example 6.18, 3-((3-fluorophenyl)ethynyl)-8-methoxy-7,8,9,10-tetrahydroazepino[2,1-b]quinazolin-12(6H)-one] | < 10 | – |
| CN1CCc2nc3cc(C#Cc4ccc(F)cc4)ccn3c(=O)c2CC1 [Example 16.7, 8-((4-fluorophenyl)ethynyl)-3-methyl-2,3,4,5-tetrahydropyrido[1′,2′:1,2]pyrimido[4,5-d]azepin-12(1H)-one] | 300 to 1000 | – |
| CN1CCn2c(nc3cc(C#Cc4cccc(F)c4)ccc3c2=O)C1 [Example 5.4, 9-((3-fluorophenyl)ethynyl)-2-methyl-3,4-dihydro-1H-pyrazino[2,1-b]quinazolin-6(2H)-one] | < 10 | – |
| O=c1c2ccc(C#Cc3ccccc3)cc2nc2n1CCC1(CC2)OCCO1 [Example 7.1] | 10 to 30 | – |
| O=c1c2ccc(C#Cc3cccc(F)c3)cc2nc2n1CC1(CC2)OCCO1 [Example 4.21, 3′((3-fluorophenyl)ethynyl)-6′,7′-dihydrospiro[[1,3]dioxolane-2,8′-pyrido[2,1-b]quinazolin]-11′(9′H)-one] | 10 to 30 | – |
| N#Cc1cc(C#Cc2ccc3c(=O)n4c(nc3c2)CCC2(CC4)OCCO2)ccc1F [Example 7.19] | 300 to 1000 | – |
| O=c1c2ccc(C#Cc3cccc(F)c3)cc2nc2n1CCC2 [Example 3.1, 6-((3-fluorophenyl)ethynyl)-2,3-dihydropyrrolo[2,1-b]quinazolin-9(1H)-one] | < 10 | – |
| COCC1CCc2nc3cc(C#Cc4cccc(F)c4)ccc3c(=O)n2C1 (stereo not drawn) [Example 4.33, 3-((3-fluorophenyl)ethynyl)-8-(methoxymethyl)-8,9-dihydro-6H-pyrido[2,1-b]quinazolin-11(7H)-one] | < 10 | – |
| O=c1c2ccc(C#Cc3ccc(F)cc3)cc2ncn1CC1CCCO1 (single isomer, unassigned) [1.15/1.16 faster moving enantiomer (fraction 1), 7-((4-fluorophenyl)ethynyl)-3-((tetrahydrofuran-2-yl)methyl)quinazolin-4(3H)-one] | 10 to 30 | – |
| CC1(C)CCc2nc3cc(C#Cc4ccccn4)ccc3c(=O)n2C1 [Example 4.16, 8,8-dimethyl-3-(pyridin-2-ylethynyl)-8,9-dihydro-6H-pyrido[2,1-b]quinazolin-11(7H)-one] | < 10 | – |

| Structure (SMILES) | EC50 [1] [nM] | EC50 (mGluR5 PAM EC50, HEK293/GLAST cells expressing recombinant human mGluR5) [nM] |
| --- | --- | --- |
| O=c1c2ccc(C#Cc3ccccn3)cc2nc2n1CC(CO)CC2 (stereo not drawn) [Example 4.32, 8-(hydroxymethyl)-3-(pyridin-2-ylethynyl)-8,9-dihydro-6H-pyrido[2,1-b]quinazolin-11(7H)-one] | 100 to 300 | – |
| CC(C)CC1Cc2nc3cc(C#Cc4cccc(F)c4)ccc3c(=O)n2C1 (stereo not drawn) [Example 3.9, 6-((3-fluorophenyl)ethynyl)-2-isobutyl-2,3-dihydropyrrolo[2,1-b]quinazolin-9(1H)-one] | 10 to 30 | – |
| CC1(O)CCc2nc3cc(C#Cc4ccccn4)ccc3c(=O)n2C1 (stereo not drawn) [Example 4.45, 8-hydroxy-8-methyl-3-(pyridin-2-ylethynyl)-8,9-dihydro-6H-pyrido[2,1-b]quinazolin-11(7H)-one] | 100 to 300 | – |
| CCOCc1cnc2cc(C#Cc3cccc(F)c3)ccn2c1=O [Example 13.8, 3-(ethoxymethyl)-8-((3-fluorophenyl)ethynyl)-4H-pyrido[1,2-a]pyrimidin-4-one] | 30 to 100 | – |
| O=c1c2ccc(C#Cc3ccccn3)cc2nc2n1C1CCC2C1 (stereo not drawn) [Example 3.25, 3-(pyridin-2-ylethynyl)-8,9-dihydro-6H-6,9-methanopyrido[2,1-b]quinazolin-11(7H)-one] | 10 to 30 | – |
| CC(C)CC1CCCCc2nc3cc(C#Cc4ccc(F)cc4)ccc3c(=O)n21 (stereo not drawn) [Example 6.32, 3-((4-fluorophenyl)ethynyl)-10-isobutyl-7,8,9,10-tetrahydroazepino[2,1-b]quinazolin-12(6H)-one] | 100 to 300 | – |
| CC1(C)CCc2nc3cc(C#Cc4ccccn4)ccc3c(=O)n2CC1 [Example 6.40, 8,8-dimethyl-3-(pyridin-2-ylethynyl)-7,8,9,10-tetrahydroazepino[2,1-b]quinazolin-12(6H)-one] | – | < 10 |
| N#Cc1ccc(C#Cc2ccc3c(=O)n4c(nc3c2)CCC2(CC4)OCCO2)cc1 [Example 7.39] | 300 to 1000 | – |
| Cn1cnc2cc(C#Cc3nccs3)ccc2c1=O [Example 1.5, 3-methyl-7-(thiazol-2-ylethynyl)quinazolin-4(3H)-one] | 300 to 1000 | – |
| O=c1c2ccc(C#Cc3ccccn3)cc2nc2n1CCCCN2 [Example 8.25, 10-(pyridin-2-ylethynyl)-2,3,4,5-tetrahydro-[1,3]diazepino[2,1-b]quinazolin-7(1H)-one] | 10 to 30 | – |
| O=c1c2ccc(C#Cc3cccc(F)c3)cc2nc2n1CCN(C1CCOC1)CC2 (stereo not drawn) [Example 8.13, 8-((3-fluorophenyl)ethynyl)-3-(tetrahydrofuran-3-yl)-2,3,4,5-tetrahydro-[1,4]diazepino[7,1-b]quinazolin-11(1H)-one acetonitrile] | 100 to 300 | – |
| O=c1c2ccc(C#Cc3cccc(F)c3)cc2nc2n1CCN(C1CCC1)CC2 [Example 8.11, 3-cyclobutyl-8-((3-fluorophenyl)ethynyl)-2,3,4,5-tetrahydro-[1,4]diazepino[7,1-b]quinazolin-11(1H)-one] | 300 to 1000 | – |
| O=c1c2ccc(C#CC3CCCCC3)cc2nc2n1CCC1(CC2)OCCO1 [Example 7.54] | 300 to 1000 | – |
| CC1Cc2nc3cc(CCc4cccc(F)c4)ccc3c(=O)n2C1 (stereo not drawn) [Example 21.7, 6-(3-fluorophenethyl)-2-methyl-2,3-dihydropyrrolo[2,1-b]quinazolin-9(1H)-one] | 300 to 1000 | – |
| CN1CCCn2c(nc3cc(C#Cc4cccc(F)c4)ccc3c2=O)CC1 [Example 10.3, 11-((3-fluorophenyl)ethynyl)-3-methyl-3,4,5,6-tetrahydro-1H-[1,5]diazocino[2,1-b]quinazolin-8(2H)-one] | 10 to 30 | – |
| O=c1c2ncc(C#Cc3ccccn3)cc2nc2n1C(CO)CC2 (stereo not drawn) [Example 11.3, 8-(hydroxymethyl)-3-(pyridin-2-ylethynyl)-7,8-dihydropyrido[3,2-d]pyrrolo[1,2-a]pyrimidin-10(6H)-one] | 300 to 1000 | – |
| CC1CCc2nc3cc(C#Cc4cccc(C#N)n4)ccc3c(=O)n2CC1 (stereo not drawn) [Example 6.47, 6-((8-methyl-12-oxo-6,7,8,9,10,12-hexahydroazepino[2,1-b]quinazolin-3-yl)ethynyl)picolinonitrile] | 30 to 100 | – |
| O=c1c2ccc(CCc3ccccc3)cc2nc2n1CCCCC2 [Example 21.1, 3-phenethyl-7,8,9,10-tetrahydroazepino[2,1-b]quinazolin-12(6H)-one] | 100 to 300 | – |
| O=c1c2ccc(C#Cc3ccccn3)cc2nc2n1CCN(CCC(F)(F)F)CC2 [Example 8.21, 8-(pyridin-2-ylethynyl)-3-(3,3,3-trifluoropropyl)-2,3,4,5-tetrahydro-[1,4]diazepino[7,1-b]quinazolin-11(1H)-one] | 100 to 300 | – |
| Cc1cc(C#Cc2ccc3c(=O)n4c(nc3c2)CCC2(CC4)OCCO2)ccn1 [Example 7.47] | 10 to 30 | – |
| CC1Cc2nc3cc(C#Cc4ccccn4)cnc3c(=O)n2C1 (stereo not drawn) [Example 11.13, 7-methyl-3-(pyridin-2-ylethynyl)-7,8-dihydropyrido[3,2-d]pyrrolo[1,2-a]pyrimidin-10(6H)-one] | 300 to 1000 | – |
